Biological target: T1, human CTPS1 (Homo sapiens, UniProt P17812)
T1 construct: purchased Proteros biostructures GmbH
T1 sequence (P17812 1-591): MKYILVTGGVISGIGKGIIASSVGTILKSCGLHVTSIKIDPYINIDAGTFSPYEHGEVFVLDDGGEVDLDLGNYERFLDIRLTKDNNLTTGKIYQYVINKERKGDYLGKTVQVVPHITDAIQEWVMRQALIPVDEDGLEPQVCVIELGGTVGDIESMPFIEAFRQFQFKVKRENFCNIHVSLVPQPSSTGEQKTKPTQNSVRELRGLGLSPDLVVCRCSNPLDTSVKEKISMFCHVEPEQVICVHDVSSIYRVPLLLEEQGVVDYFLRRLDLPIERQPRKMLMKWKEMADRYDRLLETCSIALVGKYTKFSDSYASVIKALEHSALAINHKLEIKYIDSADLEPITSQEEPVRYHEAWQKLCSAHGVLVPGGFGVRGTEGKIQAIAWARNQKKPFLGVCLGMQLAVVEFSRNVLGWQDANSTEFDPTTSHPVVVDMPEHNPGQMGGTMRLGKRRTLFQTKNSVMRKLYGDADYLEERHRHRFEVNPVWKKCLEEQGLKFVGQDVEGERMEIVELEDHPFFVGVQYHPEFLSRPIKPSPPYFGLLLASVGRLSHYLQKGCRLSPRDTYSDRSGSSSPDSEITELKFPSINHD
Experiment: Human CTPS1 enzyme inhibition (ADP-Glo Max assay)
Assay type: biochemical
Settings: Table 23; ADP-Glo Max assay; read-out: CTPS1 (Human CTPS1 Enzyme Inhibition data grouped by potency range, IC50)
Procedure: Biological Example 1—Human CTPS1 Enzyme Inhibition
The enzyme inhibitory activities of compounds invented against the target of interest were determined using the ADP-Glo™ Max assay (Promega, UK). Assays for human CTPS1 were performed in 1× assay buffer containing 50 mM Tris, 10 mM MgCl2, 0.01% Tween-20, pH to 8.0 accordingly. Finally, immediately before use, L-cysteine was added to the 1× assay buffer to a final concentration of 2 mM. All reagents are from Sigma-Aldrich unless specified otherwise. Human full length active C-terminal FLAG-Hiss-tag CTPS1 (UniProtKB-P17812, CTPS[1-591]-[…]) was obtained from Proteros biostructures GmbH.
3× human CTPS1 protein was prepared in 1× assay buffer to the final working protein concentration required for the reaction. A 2 uL volume per well of 3× human CTPS1 protein was mixed with 2 uL per well of 3× test compound (compound prepared in 1× assay buffer to an appropriate final 3× compound concentration respective to the concentration response curve designed for the compounds under test) for 10 minutes at 25° C. The enzymatic reaction was then initiated by addition of a 2 uL per well volume of a pre-mixed substrate mix (UltraPure ATP from ADP-Glo™ Max kit (0.31 mM), GTP (0.034 mM), UTP (0.48 mM) and L-glutamine (0.186 mM)) and the mixture was incubated for an appropriate amount of time within the determined linear phase of the reaction at 25° C. under sealed plate conditions with constant agitation at 500 revolutions per minute (rpm). ADP-Glo™ Max reagent was added for 60 minutes (6 μL per well) and subsequently ADP-Glo™ Max development reagent was added for 60 minutes (12 uL per well) prior to signal detection in a microplate reader (EnVision® Multilabel Reader, Perkin Elmer). Following each reagent addition over the course of the assay, assay plates were pulse centrifuged for 30 seconds at 500 rpm.
In all cases, the enzyme converts ATP to ADP and the ADP-Glo™ Max reagent subsequently depletes any remaining endogenous ATP in the reaction system. The ADP-Glo™ Max detection reagent converts the ADP that has been enzymatically produced back into ATP and using ATP as a substrate together with luciferin for the enzyme luciferase, light is generated which produces a detectable luminescence. […] The percentage inhibition produced by each concentration of compound was calculated using the equation shown below: […]
Percentage inhibition was then plotted against compound concentration, and the 50% inhibitory concentration (IC50) was determined from the resultant concentration-response curve.

SMILES | IC50 [nM]
Cc1cncc(-c2ccc(NC(=O)C(C)(C)c3ccnc(NS(C)(=O)=O)n3)c(C)c2)n1 [Example P5, 2-Methyl-N-(2-methyl-4-(6-methylpyrazin-2-yl)phenyl)-2-(2-(methylsulfonamido)pyrimidin-4-yl)propanamide] | 1000 to 10000
O=C(Cc1nc(NS(=O)(=O)C2CC2)ncc1F)Nc1ccc(-c2cccnc2)cc1 [Example P15] | 1000 to 10000
O=C(Cc1ccnc(NS(=O)(=O)C2CC2)n1)Nc1ccc(-c2ccccc2)cc1 [Example P17] | 1000 to 10000
CCOc1cncc(-c2ccc(NC(=O)C(C)(C)c3ccnc(NS(=O)(=O)C4CCC4)n3)c(C)c2)n1 [Example P24] | 100 to 1000
COc1cncc(-c2ccc(NC(=O)C(C)(C)c3ccnc(NS(=O)(=O)C4CCC4)n3)cc2)n1 [Example P25] | 100 to 1000
CCOc1cncc(-c2ccc(NC(=O)C(C)(C)c3ccnc(NS(=O)(=O)C4CCC4)n3)cc2)n1 [Example P26] | 100 to 1000
CCOc1cncc(-c2ccc(NC(=O)C(C)(C)c3ccnc(NS(=O)(=O)C4CC4)n3)nc2)c1 [Example P28] | 100 to 1000
CC(C)(C(=O)Nc1ccc(-c2cccnc2)cn1)c1ccnc(NS(=O)(=O)C2CC2)n1 [Example P29] | 1000 to 10000
CC(C)Oc1cncc(-c2ccc(NC(=O)C(C)(C)c3ccnc(NS(=O)(=O)C4CC4)n3)c(F)c2)c1 [Example P35] | 100 to 1000
CC(C)(C(=O)Nc1ccc(-c2cccnc2)cc1F)c1ccnc(NS(=O)(=O)C2CC2)n1 [Example P36] | 1000 to 10000
CCOc1cncc(-c2cc(F)c(NC(=O)C(C)(C)c3ccnc(NS(=O)(=O)C4CC4)n3)cc2C)n1 [Example P40] | 100 to 1000
CC(C)(C(=O)Nc1ccc(-c2cnccn2)cc1F)c1ccnc(NS(=O)(=O)C2CC2)n1 [Example P42] | 1000 to 10000
Cc1cc(-c2cncc(C(F)(F)F)n2)ccc1NC(=O)C(C)(C)c1ccnc(NS(=O)(=O)C2CC2)n1 [Example P43] | 100 to 1000
CCOc1cncc(-c2ccc(NC(=O)C(C)(C)c3ccnc(NS(=O)(=O)C4CC4)n3)c(C)c2C)n1 [Example P44] | 100 to 1000
CCOc1cncc(-c2cc(C)c(NC(=O)C(C)(C)c3ccnc(NS(=O)(=O)C4CC4)n3)cc2F)n1 [Example P45] | 100 to 1000
CCOc1cncc(-c2cc(C)c(NC(=O)C(C)(C)c3ccnc(NS(=O)(=O)C4CC4)n3)cc2C)n1 [Example P46] | 100 to 1000
CCOc1cncc(-c2cc(OC)c(NC(=O)C(C)(C)c3ccnc(NS(=O)(=O)C4CC4)n3)cc2F)n1 [Example P48] | 100 to 1000
CC(C)(C(=O)Nc1ccc(-c2cncnc2)cc1)c1ccnc(NS(=O)(=O)C2CC2)n1 [Example P50] | 1000 to 10000
CC(C)(C(=O)Nc1ccc(-c2cncc(Cl)c2)cc1)c1ccnc(NS(=O)(=O)C2CC2)n1 [Example P51] | 100 to 1000
CC(C)(C(=O)Nc1ccc(-c2cncc(C#N)c2)cc1)c1ccnc(NS(=O)(=O)C2CC2)n1 [Example P52] | 100 to 1000
CC(C)(C(=O)Nc1ccc(-c2cncc(F)c2)cc1)c1ccnc(NS(=O)(=O)C2CC2)n1 [Example P53] | 100 to 1000
Cc1cncc(-c2ccc(NC(=O)C(C)(C)c3ccnc(NS(=O)(=O)C4CC4)n3)cc2)c1 [Example P54] | 100 to 1000
COc1cncc(-c2ccc(NC(=O)C(C)(C)c3ccnc(NS(=O)(=O)C4CC4)n3)cc2)c1 [Example P56] | 100 to 1000
CCOc1cncc(-c2ccc(NC(=O)C(C)(C)c3ccnc(NS(=O)(=O)C4CC4)n3)cc2)c1 [Example P57] | 100 to 1000
CC(C)Oc1cncc(-c2ccc(NC(=O)C(C)(C)c3ccnc(NS(=O)(=O)C4CC4)n3)cc2)c1 [Example P58] | 100 to 1000
CC(C)(C(=O)Nc1ccc(-c2cccc(C(F)(F)F)c2)cc1)c1ccnc(NS(=O)(=O)C2CC2)n1 [Example P60] | 1000 to 10000
CC(C)(C(=O)Nc1ccc(-c2cccc(Cl)c2)cc1)c1ccnc(NS(=O)(=O)C2CC2)n1 [Example P61] | 1000 to 10000

Further lines, results first:

IC50 [nM] | SMILES
≤ 100 | CCOc1cncc(-c2ccc(NC(=O)C(F)(CC)c3ccnc(NS(C)(=O)=O)n3)nc2)n1 (single isomer, unassigned) [Example P165]
≤ 100 | CCOc1cncc(-c2ccc(C(=O)NC(CC)c3cncc(NS(=O)(=O)C4CC4)n3)c(F)c2)n1 (single isomer, unassigned) [Example P225]
≤ 100 | COc1cncc(-c2ccc(NC(=O)C(C)(C)c3ccnc(NS(=O)(=O)C4CC4)n3)cc2)n1 [Example P3, 2-(2-(cyclopropanesulfonamido)pyrimidin-4-yl)-N-(4-(6-methoxypyrazin-2-yl)phenyl)-2-methylpropanamide]
100 to 1000 | CC(C)(C(=O)Nc1ccc(-c2cncc(C(F)(F)F)c2)cc1)c1ccnc(NS(=O)(=O)C2CC2)n1 [Example P4, 2-(2-(Cyclopropanesulfonamido)pyrimidin-4-yl)-2-methyl-N-(4-(5-(trifluoromethyl)pyridin-3-yl)phenyl)propanamide]
≤ 100 | O=C(Cc1ccnc(NS(=O)(=O)C2CC2)n1)Nc1ccc(-c2cncc(C(F)(F)F)n2)cc1 [Example P8, 2-(2-(Cyclopropanesulfonamido)pyrimidin-4-yl)-N-(4-(6-(trifluoromethyl)pyrazin-2-yl)phenyl)acetamide]
≤ 100 | CCOc1cncc(-c2ccc(NC(=O)C(CC)(CC)c3ccnc(NS(=O)(=O)C4CC4)n3)cc2)n1 [Example P10]
≤ 100 | O=C(Cc1ccnc(NS(=O)(=O)C2CC2)n1)Nc1ccc(-c2cncc(C(F)(F)F)n2)cc1F [Example P11]
100 to 1000 | O=C(Cc1ccnc(NS(=O)(=O)C2CC2)n1)Nc1ccc(-c2cncc(C(F)(F)F)c2)cc1 [Example P13]
100 to 1000 | O=C(Cc1ccnc(NS(=O)(=O)C2CC2)n1)Nc1ccc(-c2cncc(OCC(F)(F)F)c2)cc1 [Example P14]
≤ 100 | COc1cncc(-c2ccc(NC(=O)Cc3ccnc(NS(=O)(=O)C4CC4)n3)cc2)n1 [Example P19]
≤ 100 | O=C(Cc1ccnc(NS(=O)(=O)C2CC2)n1)Nc1ccc(-c2cncc(OCC(F)(F)F)n2)cc1 [Example P20]
100 to 1000 | CCOc1cncc(-c2ccc(NC(=O)C(C)(C)c3ccnc(NS(=O)(=O)C4CCC4)n3)nc2)n1 [Example P22]
100 to 1000 | CC(C)Oc1cncc(-c2ccc(NC(=O)C(C)(C)c3ccnc(NS(=O)(=O)C4CCC4)n3)c(F)c2)n1 [Example P23]
≤ 100 | CCOc1cncc(-c2cnc(NC(=O)C(C)(C)c3ccnc(NS(=O)(=O)C4CC4)n3)c(F)c2)n1 [Example P27]
≤ 100 | CC(C)(C(=O)Nc1ccc(-c2cncc(C(F)(F)F)n2)cn1)c1ccnc(NS(=O)(=O)C2CC2)n1 [Example P30]
≤ 100 | CC(C)(C(=O)Nc1ccc(-c2cncc(OC3CC3)n2)cn1)c1ccnc(NS(=O)(=O)C2CC2)n1 [Example P32]
≤ 100 | CCOc1cncc(-c2ccc(NC(=O)C(C)(C)c3ccnc(NS(=O)(=O)C4CC4)n3)c(Cl)c2)n1 [Example P33]
≤ 100 | CC(C)(C(=O)Nc1ccc(-c2cncc(C(F)(F)F)n2)cc1F)c1ccnc(NS(=O)(=O)C2CC2)n1 [Example P37]
≤ 100 | CCOc1cncc(-c2cc(F)c(NC(=O)C(C)(C)c3ccnc(NS(=O)(=O)C4CC4)n3)c(F)c2)n1 [Example P41]
≤ 100 | CCOc1cncc(-c2ccc(NC(=O)C(C)(C)c3ccnc(NS(=O)(=O)C4CC4)n3)c(OC(F)(F)F)c2)n1 [Example P47]
≤ 100 | CCOc1cncc(-c2ccc(NC(=O)C(C)(C)c3ccnc(NS(=O)(=O)C4CC4)n3)c(OC)c2)n1 [Example P49]
≤ 100 | CC(C)(C(=O)Nc1ccc(-c2cncc(OC(F)F)c2)cc1)c1ccnc(NS(=O)(=O)C2CC2)n1 [Example P55]

— US20230002352A1, “SULFONAMIDE DERIVATIVES AS CTPS1 INHIBITORS” (Step Pharma S.A.S., priority 2019, published 2023)
